Assay results from ChEMBL document CHEMBL1201862, “PubChem BioAssay data set” (2004).
pIC50: −log10 of the molar value. Active and inactive are the calls of the source.

What was measured:
[1] = blockers of HIV-1 ZM109 envelope-driven cell-cell fusion – HeLa effector, CEM target cells, luciferase, cherry-pick, dose response (AID 652058); assay type: functional, cell-based;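 also: luciferase signal from HIV-1 Env mediated cell-cell fusion of effector and target cells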
[2] = blockers of HIV-1 envelope-mediated cell-cell fusion – cherry-pick, dose response (AID 652057); assay type: functional, cell-based
[3] = viability loss in CEM21 cells – cell-based, CellTiter-Glo luminescence, cherry-picked, cytotoxicity control for viral fusion inhibitor project, dose response (AID 652042); assay type: functional;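 also: potency for signal decrease meaning cytotoxicity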
[4] = HIV-1 AD8 envelope cell-cell fusion blockers – cherry-pick, dose response (AID 652062); assay type: functional, cell-based;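 also: luciferase signal from cell-cell fusion driven by HIV-1 clade B AD8 Env; potency is for inhibitors of fusion seen as a drop in luminescence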
[5] = off-target signal loss in HeLa-CEM21 co-culture – HeLa F-luc CTL cells, cherry-picked, counter-screen for HIV-1 Env fusion inhibitor project, dose response (AID 652040); assay type: functional, cell-based;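 also: potency for signal decrease marking cytotoxic or nonspecific inhibition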
[6] = intracellular Trypanosoma cruzi inhibitors in host cells – cell-based, plate reader, cherry-pick samples, set 3, dose response (AID 651818); assay type: functional;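 also: compounds incubated with infected cells for about four days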
[7] = mouse fibroblast viability loss – cell-based, cherry-pick samples, set 2, cytotoxicity control for T. cruzi growth inhibitor project, dose response (AID 651817); assay type: functional; details: NIH3T3
[8] = cytotoxicity in HEK293 background cells – cell-based, dry powder, set 2, counter-screen for EBV LMP1 inhibitor project, dose response (AID 624374); assay type: functional
[9] = target: Metabotropic glutamate receptor 3 (Rattus norvegicus, UniProt P31422); experiment: inhibitors of rat mGlu3 Galpha15 signaling – TREx293 cells, calcium flux, mGlu3 NAM project, dose response (AID 651840); assay type: functional
[10] = A Cell-Based Confirmatory Screen for Compounds that Inhibit VEEV, TC-83 (8).; assay type: functional
[11] = Late stage assay provider results from the probe development effort to identify inhibitors of the Plasmodium falciparum M17 Leucine Aminopeptidase (M17LAP): radiolabel-based cell-based dose response assay to identify compounds that inhibit P. falciparum growth in RBCs Set 2.; assay type: functional

Sequence of Metabotropic glutamate receptor 3 (P31422 whole entry): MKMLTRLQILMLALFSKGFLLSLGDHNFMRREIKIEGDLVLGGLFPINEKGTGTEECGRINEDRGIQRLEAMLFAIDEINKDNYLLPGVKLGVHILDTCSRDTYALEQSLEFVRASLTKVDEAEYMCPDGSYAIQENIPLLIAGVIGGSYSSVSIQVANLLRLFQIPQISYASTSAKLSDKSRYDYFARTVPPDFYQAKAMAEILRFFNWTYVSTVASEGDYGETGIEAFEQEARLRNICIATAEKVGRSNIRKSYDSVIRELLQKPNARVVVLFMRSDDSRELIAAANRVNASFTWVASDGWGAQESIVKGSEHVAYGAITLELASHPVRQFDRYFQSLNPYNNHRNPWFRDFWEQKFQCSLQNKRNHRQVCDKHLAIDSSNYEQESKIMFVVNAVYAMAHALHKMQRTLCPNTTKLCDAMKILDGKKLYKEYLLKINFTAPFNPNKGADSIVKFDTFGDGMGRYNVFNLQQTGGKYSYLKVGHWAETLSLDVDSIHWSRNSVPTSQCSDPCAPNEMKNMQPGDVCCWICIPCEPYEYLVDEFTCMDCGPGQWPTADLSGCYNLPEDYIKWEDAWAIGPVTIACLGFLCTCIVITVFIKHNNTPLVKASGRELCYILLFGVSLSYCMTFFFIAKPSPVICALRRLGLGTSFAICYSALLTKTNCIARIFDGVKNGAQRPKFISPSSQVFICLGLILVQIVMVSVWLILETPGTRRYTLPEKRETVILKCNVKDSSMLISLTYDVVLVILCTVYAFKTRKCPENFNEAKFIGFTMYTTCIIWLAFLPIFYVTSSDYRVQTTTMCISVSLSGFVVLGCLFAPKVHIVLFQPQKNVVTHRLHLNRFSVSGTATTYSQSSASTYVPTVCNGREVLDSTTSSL

Cc1cc(C)nc(Nc2nc(C(N)CCc3ccccc3)cs2)n1 (stereo unspecified)
AC50 [1]: 3.65 µM (active)
AC50 [2]: 4.75 µM (active)
AC50 [3]: 40.1 µM (active)
AC50 [4]: 18.2 µM (active)
AC50 [5]: 6.75 µM (active)

C[C@@H]1CN([C@@H](C)CO)C(=O)c2cccc(NC(=O)c3ccncc3)c2O[C@H]1CN(C)Cc1ccc(Cl)c(Cl)c1
AC50 [6]: 0.08 µM (active)
AC50 [7]: 16.6 µM (active)

CS(=O)(=O)Nc1ccc2c(c1)[C@@H]1C[C@H](CC(=O)NCC3CC3)O[C@H](CO)[C@@H]1O2
AbsAC35 [8]: 85.99 µM

COc1ccc(C#Cc2ccc(C(=O)N3CCC[C@@H](O)C3)cc2)cc1
pIC50 [9]: 6.22

O=c1nc(Nc2ccc(OCc3ccccc3)cc2)sc2ncc(F)cc12
IC50 [10]: 1.42 µM (active)

O=C(Cc1ccc2ccccc2c1)NO
IC50 [11]: 5.8 µM (active)
